How the values were obtained:
[1] = test system: U937 cell line; assay: Cell inhibition assay (SRB cell viability), U937; type: cell-based; settings: Homo sapiens, U-937, IC50 range class, 72 h, read-out: Inhibitor Activity vs U937 cell line
Method: (§1) The corresponding cancer cell lines (U937, HCT 116 and HUT) growing in log phase were harvested and seeded at 1000 cells/well (200 ul final volume) into 96-well tissue culture plates. Following 24 h of cell growth cells were treated with compounds (final concentration of 20 uM). Plates were then re-incubated for a further 72 h before a sulphorhodamine B (SRB) cell viability assay was conducted according to Skehan 1990 J Natl Canc Inst 82, 1107-1112.
(§2) Data were expressed as a percentage inhibition of the control, measured in the absence of inhibitor, as follows: — % inhibition=100−((S^i/S^o)×100) where S^i is the signal in the presence of inhibitor and S^o is the signal in the presence of DMSO.
(§3) IC50 values were determined by non-linear regression analysis, after fitting the results of eight data points to the equation for sigmoidal dose response with variable slope (% activity against log concentration of compound), using Graphpad Prism software.

[2] = test system: HCT 116 cell line; assay: Cell inhibition assay (SRB cell viability), HCT 116; type: cell-based; settings: Homo sapiens, IC50 range class, 72 h, read-out: Inhibitor Activity vs HCT 116 cell line
Method: as §1, §2, §3

[3] = test system: HUT cell line; assay: Cell inhibition assay (SRB cell viability), HUT; type: cell-based; settings: IC50 range class, 72 h, read-out: Inhibitor Activity vs HUT cell line
Method: as §1, §2, §3

[4] = biological target: Aurora-B (Homo sapiens, UniProt Q96GD4); assay: Aurora-B enzyme assay (identical protocol as Aurora-A); type: biochemical; settings: IC50 range class; read-out: Inhibitor Activity vs Aurora-B
Aurora-B, sequence (Q96GD4 whole entry): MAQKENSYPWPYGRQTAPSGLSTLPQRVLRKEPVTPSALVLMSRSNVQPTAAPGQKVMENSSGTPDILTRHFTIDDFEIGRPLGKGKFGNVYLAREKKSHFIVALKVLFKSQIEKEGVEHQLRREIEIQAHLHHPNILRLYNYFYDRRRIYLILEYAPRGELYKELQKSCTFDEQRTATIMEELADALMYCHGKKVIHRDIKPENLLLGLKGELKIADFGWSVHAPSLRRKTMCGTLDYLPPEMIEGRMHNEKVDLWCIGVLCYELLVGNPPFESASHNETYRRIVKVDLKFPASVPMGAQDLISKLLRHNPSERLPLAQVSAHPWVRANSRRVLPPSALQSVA
Method: The ability of compounds to inhibit Aurora-A activity was measured using a simple microplate assay for Aurora-A activity, also suitable for high-throughput screening. In brief, γ-^33P-ATP and Aurora-A were incubated in a myelin basic protein (MBP)-coated Flashplate® to generate a scintillation signal. The plates were formatted to contain the inhibitor, controls, positive control (staurosporin) and blanks. After incubation at 37° C. for 1 hour and a subsequent wash procedure, the plates were read on a TopCount-NXT™.
IC50 values were determined by non-linear regression analysis, after fitting the data point results to the equation for sigmoidal dose response with variable slope (% activity against log concentration of compound), using Graphpad Prism software.
The Aurora-B enzyme assay follows the identical protocol as Aurora-A.

Compound	IC50 [1] [nM]	IC50 [2] [nM]	IC50 [4] [nM]	IC50 [3] [nM]
COc1cc2nccc(Oc3ccc(NC(=O)c4ccccc4)cc3)c2cc1OCC[C@H](N)C(=O)OC1CCCC1 [Example 35, (S)-2-Amino-4-[4-(4-benzoylamino-phenoxy)-7-methoxy-quinolin-6-yloxy]-butyric acid cyclopentyl ester]	< 1000	1000 to 5000	> 5000	1000 to 5000
COc1cc2c(Oc3ccc(NC(=O)c4ccccc4)cc3)ccnc2cc1OCC[C@H](NC(C)=O)C(=O)OC1CCCC1 [Example 42, (S)-2-Acetylamino-4-[4-(4-benzoylamino-phenoxy)-6-methoxy-quinolin-7-yloxy]-butyric acid cyclopentyl ester]	< 1000	< 1000	2000 to 5000	< 1000
COc1cc2c(Oc3ccc(NS(=O)(=O)c4ccccc4)cc3)ccnc2cc1OCC[C@H](N)C(=O)O [Example 74, (S)-2-Amino-4-[4-(4-benzenesulfonylamino-phenoxy)-6-methoxy-quinolin-7-yloxy]-butyric acid]	–	–	2000 to 5000	–
COc1cc2c(Nc3cnn(CC(=O)Nc4ccccc4)c3)ccnc2cc1OCC[C@H](N)C(=O)O [Example 23, (S)-2-Amino-4-[6-methoxy-4-(1-phenylcarbamoylmethyl-1H-pyrazol-4-ylamino)-quinolin-7-yloxy]-butyric acid]	–	–	> 5000	–
COc1cc2c(Oc3ccc(NC(=O)c4cccc(F)c4)cc3)ccnc2cc1OCC[C@H](N)C(=O)O [Example 56, (S)-2-Amino-4-{4-[4-(3-fluoro-benzoylamino)-phenoxy]-6-methoxy-quinolin-7-yloxy}-butyric acid]	–	–	< 2000	–
COc1cc2c(Oc3ccc(NC(=O)c4ccccc4)cc3)ccnc2cc1OCC[C@H](N)C(=O)OC1CCCCC1 [Example 48, (S)-2-Amino-4-[4-(4-benzoylamino-phenoxy)-6-methoxyquinolin-7-yloxy]-butyric acid cyclohexyl ester]	< 1000	< 1000	–	< 1000
COc1cc2c(Oc3ccc(NC(=O)Nc4ccc(C(F)(F)F)cc4)cc3F)ccnc2cc1OCCC[C@@H](N)C(=O)OC1CCCC1 [Example 123, (R)-2-Amino-5-(4-{2-fluoro-4-[3-(4-trifluoromethyl-phenyl)-ureido]-phenoxy}-6-methoxy-quinolin-7-yloxy)-pentanoic acid cyclopentyl ester]	< 1000	< 1000	–	< 1000
COc1cc2c(Oc3ccc(NC(=O)c4cc(C(F)(F)F)ccc4F)cc3)ccnc2cc1OCC[C@H](N)C(=O)OC1CCCC1 [Example 68, (S)-2-Amino-4-{4-[4-(2-fluoro-5-trifluoromethyl-benzoylamino)-phenoxy]-6-methoxy-quinolin-7-yloxy}-butyric acid cyclopentyl ester]	< 1000	< 1000	–	< 1000
COc1cc2c(Oc3ccc(NC(=O)c4ccc(OC(F)(F)F)cc4)cc3)ccnc2cc1OCC[C@H](N)C(=O)O [Example 71, (S)-2-Amino-4-{6-methoxy-4-[4-(4-trifluoromethoxy-benzoylamino)-phenoxy]-quinolin-7-yloxy}-butyric acid]	–	–	2000 to 5000	–
COc1cc2c(Oc3ccc(NC(=O)Nc4ccc5c(c4)CCC5)cc3)ccnc2cc1OCC[C@H](N)C(=O)OC1CCCC1 [Example 97, (S)-2-Amino-4-{4-[4-(3-indan-5-yl-ureido)-phenoxy]-6-methoxy-quinolin-7-yloxy}-butyric acid cyclopentyl ester]	< 1000	< 1000	–	< 1000
COc1cc2c(Oc3ccc(NC(=O)c4ccc(OC(F)(F)F)cc4)cc3)ccnc2cc1OCC[C@H](N)C(=O)OC1CCCC1 [Example 70, (S)-2-Amino-4-{6-methoxy-4-[4-(4-trifluoromethoxy-benzoylamino)-phenoxy]-quinolin-7-yloxy}-butyric acid cyclopentyl ester]	< 1000	< 1000	–	< 1000
COc1cc2c(Oc3ccc(NS(=O)(=O)c4ccccc4)cc3)ccnc2cc1OCC[C@H](N)C(=O)OC1CCCC1 [Example 73, (S)-2-Amino-4-[4-(4-benzenesulfonylamino-phenoxy)-6-methoxy-quinolin-7-yloxy]-butyric acid cyclopentyl ester]	1000 to 5000	> 5000	–	1000 to 5000
COc1cccc(CC(=O)N[C@@H](CCOc2cc3nccc(Oc4ccc(NC(=O)c5ccccc5)cc4)c3cc2OC)C(=O)OC2CCCC2)c1 [Example 45, (S)-4-[4-(4-Benzoylamino-phenoxy)-6-methoxy-quinolin-7-yloxy]-2-[2-(3-methoxy-phenyl)-acetylamino]-butyric acid cyclopentyl ester]	< 1000	1000 to 5000	–	< 1000
COc1cc2c(Oc3ccc(NC(=O)c4ccccc4)cc3)ccnc2cc1OCC[C@H](NCc1ccccc1)C(=O)OC1CCCC1 [Example 40, (S)-4-[4-(4-Benzoylamino-phenoxy)-6-methoxy-quinolin-7-yloxy]-2-benzylamino-butyric acid cyclopentyl ester]	< 1000	1000 to 5000	–	1000 to 5000
COc1cc2c(Oc3ccc(-c4noc(-c5ccccc5)n4)cc3)ccnc2cc1OCC[C@@H](N)C(=O)OC1CCCC1 [Example 107, (R)-2-Amino-4-{6-methoxy-4-[4-(5-phenyl-[1,2,4]oxadiazol-3-yl)-phenoxy]-quinolin-7-yloxy}-butyric acid cyclopentyl ester]	> 5000	> 5000	–	> 5000
COc1cc2c(Oc3ccc(NC(=O)c4ccccc4)cc3)ccnc2cc1OCC[C@H](NCC(C)C)C(=O)OC1CCCC1 [Example 37, (S)-4-[4-(4-Benzoylamino-phenoxy)-6-methoxy-quinolin-7-yloxy]-2-isobutylamino-butyric acid cyclopentyl ester]	< 1000	1000 to 5000	–	1000 to 5000

Further lines, with some results ahead:

IC50 [1] [nM]	IC50 [2] [nM]	IC50 [4] [nM]	Compound	IC50 [3] [nM]
< 1000	< 1000	< 2000	COc1cc2c(Oc3ccc(NC(=O)c4ccc(C(F)(F)F)cc4)cc3)ccnc2cc1OCC[C@H](N)C(=O)OC1CCCC1 [Example 53, (S)-2-Amino-4-{6-methoxy-4-[4-(4-trifluoromethyl-benzoylamino)-phenoxy]-quinolin-7-yloxy}-butyric acid cyclopentyl ester]	< 1000
1000 to 5000	1000 to 5000	–	COc1cc2c(Oc3ccc(-c4ccccc4)cc3)ccnc2cc1OCC[C@H](N)C(=O)OC1CCCC1 [Example 11, (S)-2-Amino-4-[4-(biphenyl-4-yloxy)-6-methoxy-quinolin-7-yloxy]-butyric acid cyclopentyl ester]	1000 to 5000
< 1000	< 1000	–	COc1cc2c(Oc3ccc(CC(=O)Nc4ccc(C(F)(F)F)cc4)cc3)ccnc2cc1OCC[C@H](N)C(=O)OC1CCCC1 [Example 79, (S)-2-Amino-4-(6-methoxy-4-{4-[(4-trifluoromethyl-phenylcarbamoyl)-methyl]-phenoxy}-quinolin-7-yloxy)-butyric acid cyclopentyl ester]	< 1000
< 1000	1000 to 5000	–	COc1cc2c(Oc3ccc(NC(=O)c4ccccc4)cc3OC)ccnc2cc1OCC[C@H](N)C(=O)OC1CCCC1 [Example 132, (S)-2-Amino-4-[4-(4-benzoylamino-2-methoxy-phenoxy)-6-methoxy-quinolin-7-yloxy]-butyric acid cyclopentyl ester]	1000 to 5000
< 1000	< 1000	–	COc1cc2c(Oc3ccc(NC(=O)c4ccccc4F)cc3)ccnc2cc1OCC[C@H](N)C(=O)OC1CCCC1 [Example 61, (S)-2-Amino-4-{4-[4-(2-fluoro-benzoylamino)-phenoxy]-6-methoxy-quinolin-7-yloxy}-butyric acid cyclopentyl ester]	< 1000
< 1000	1000 to 5000	–	COc1cc2c(Oc3ccc(CC(=O)c4ccccc4)cc3)ccnc2cc1OCC[C@H](N)C(=O)OC1CCCC1 [Example 140, (S)-2-Amino-4-{6-methoxy-4-[4-(2-oxo-2-phenyl-ethyl)-phenoxy]-quinolin-7-yloxy}-butyric acid cyclopentyl ester]	< 1000
< 1000	1000 to 5000	–	COc1cc2c(Oc3ccc(NC(=O)c4ccccc4)cc3)ccnc2cc1OC[C@@H]1CCCN1CC[C@H](N)C(=O)OC1CCCC1 [Example 135, (S)-2-Amino-4-{(S)-2-[4-(4-benzoylamino-phenoxy)-6-methoxy-quinolin-7-yloxymethyl]-pyrrolidin-1-yl}-butyric acid cyclopentyl ester]	1000 to 5000

From patent US8148531B2 (Chroma Therapeutics Ltd., priority 2005, dated 2012)
